Test results from patent US20120219636A1, “ENHANCED REMOVAL OF VIRUSES FROM FRESH PRODUCE” (THE OHIO STATE UNIVERSITY, priority 2011, published 2012).
Read-outs that look alike come from different tables or passages of the source.

Experiments:
[1] = test system: VSV; set-up: species or system vesicular stomatitis virus (VSV) Indian strain; conditions: 10,000 ppm; 37° C.; 72 hours
[2] = test system: MNV-1; test: Transmission electron microscopy of purified MNV-1 after surfactant treatment; set-up: species or system murine norovirus
[3] = test system: VSV; type: cell-based, vesicular stomatitis virus (VSV) Indian strain
[4] = test system: MNV-1; test: Sanitization wash of MNV-1 inoculated fresh produce, viral survivors by plaque assay; set-up: species or system murine norovirus; conditions: for virus reduction: 2 min wash
[5] = test system: MNV-1; type: cell-based, murine norovirus
[6] = test system: foodborne viruses; conditions: cited from earlier work
[7] = 200 ppm surfactant, 37° C., 72 hours

CCCCCCCCCCCCOS(=O)(=O)[O-].[Na+] [SDS, sodium dodecyl sulfate]
damage to VSV virus particles (electron microscopy) [1]: viral envelope was damaged and the shape of VSV was severely distorted | damage to MNV-1 virus particles (electron microscopy) [2]: outer capsid of the MNV-1 was severely damaged and aggregated | virus reduction [3, 7]: 7.5 logs | virus reduction ([3]; 200 ppm, 37° C., 4 hours): 5 logs | virus inactivation confirmed by plaque assay ([3]; purified VSV, 10,000 ppm, 37° C., 72 hours): completely inactivated | enhancement of efficiency of virus reduction over traditional sanitizers (chlorine solution alone) ([4]; fresh produce): 100 fold | virus reduction ([4]; lettuce, 50 ppm surfactant alone): 2.26 logs | virus reduction ([4]; raspberries, 50 ppm surfactant alone): 2.63 logs | virus reduction ([4]; strawberries, 50 ppm surfactant alone, room temperature): 3.14 logs | virus reduction ([4]; strawberries, 100 ppm SDS alone): 3.41 logs | virus reduction ([4]; strawberries, 200 ppm SDS alone): 3.12 logs | virus reduction ([4]; strawberries, 1,000 ppm SDS alone): 3.51 logs | virus inactivation confirmed by plaque assay [5]: completely inactivated | reduction in MNV-1 titer ([5]; 1,000 ppm surfactant, 37° C., 72 hours): highest reduction in MNV-1 titer | virus reduction ([5]; 10,000 ppm surfactant, 37° C., 72 hours): almost completely inactivated

CC(=O)OO [peracetic acid]
additional reduction over tap water washing [6]: 0.77 logs

OCl [sodium hypochlorite]
additional virus reduction over tap water washing [6]: 0.48 logs | virus reduction [6]: less than 1 log

NP40
virus reduction [3]: 10. logs | virus reduction compared with tap water or chlorine solution ([4]; four types of fresh produce, 50 ppm surfactant alone): increased virus reduction than did tap water or chlorine solution

Triton X-100
virus reduction [3, 7]: 6.7 logs | additional virus reduction than that of the chlorine solution [4]: ~1 log

Tween 20
virus reduction [3, 7]: 2.7 logs
